Among the data in patent publication US20220274961A1, “SUBSTITUTED FUSED BI- OR TRI- HETEROCYCLIC COMPOUNDS AS EHMT2 INHIBITORS” (priority 2016, published 2022) are IC50 values, retold here.

Where two headings read alike, the source gives them in different places.

Experiment [1] addresses T1, EHMT1 (Homo sapiens, UniProt Q9H9B1).
T1 sequence (Q9H9B1 1-1298): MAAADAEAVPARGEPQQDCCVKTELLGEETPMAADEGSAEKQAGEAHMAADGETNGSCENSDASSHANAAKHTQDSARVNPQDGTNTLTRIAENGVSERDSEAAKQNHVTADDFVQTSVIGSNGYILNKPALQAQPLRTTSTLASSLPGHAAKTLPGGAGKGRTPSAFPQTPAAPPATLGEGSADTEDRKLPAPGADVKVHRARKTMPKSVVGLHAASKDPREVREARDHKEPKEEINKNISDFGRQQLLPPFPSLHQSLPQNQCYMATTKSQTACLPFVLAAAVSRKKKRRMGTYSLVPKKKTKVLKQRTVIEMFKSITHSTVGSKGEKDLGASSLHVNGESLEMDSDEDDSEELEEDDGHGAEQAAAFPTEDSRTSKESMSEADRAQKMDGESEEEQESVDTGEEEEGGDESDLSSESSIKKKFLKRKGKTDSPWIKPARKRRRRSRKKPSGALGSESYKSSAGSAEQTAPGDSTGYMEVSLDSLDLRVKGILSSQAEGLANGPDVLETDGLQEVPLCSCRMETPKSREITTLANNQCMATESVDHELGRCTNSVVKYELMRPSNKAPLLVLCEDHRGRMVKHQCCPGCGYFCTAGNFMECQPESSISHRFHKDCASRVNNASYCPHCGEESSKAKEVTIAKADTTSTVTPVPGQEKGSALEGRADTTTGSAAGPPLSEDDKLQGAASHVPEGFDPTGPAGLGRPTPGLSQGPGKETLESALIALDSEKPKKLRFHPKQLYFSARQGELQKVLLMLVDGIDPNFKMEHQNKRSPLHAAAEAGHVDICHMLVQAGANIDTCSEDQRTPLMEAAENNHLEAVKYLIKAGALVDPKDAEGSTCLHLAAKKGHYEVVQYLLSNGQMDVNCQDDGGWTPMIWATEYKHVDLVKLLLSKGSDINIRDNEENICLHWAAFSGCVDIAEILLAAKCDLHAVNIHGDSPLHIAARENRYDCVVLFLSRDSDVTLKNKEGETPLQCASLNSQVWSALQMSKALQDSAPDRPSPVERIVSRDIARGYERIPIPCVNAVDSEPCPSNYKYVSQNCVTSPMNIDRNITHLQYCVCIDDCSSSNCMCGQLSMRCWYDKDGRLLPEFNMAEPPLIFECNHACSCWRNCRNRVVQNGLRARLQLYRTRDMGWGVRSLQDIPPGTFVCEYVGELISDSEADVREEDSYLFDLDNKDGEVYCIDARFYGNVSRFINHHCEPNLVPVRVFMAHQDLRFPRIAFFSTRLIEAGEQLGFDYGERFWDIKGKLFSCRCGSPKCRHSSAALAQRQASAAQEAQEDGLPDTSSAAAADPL
Kind of experiment: EHMT1 PEP. Type of experiment: biochemical.

The target in experiment [2] is T2, human EHMT2 913-1193 (Homo sapiens, UniProt Q96KQ7).
T2 construct: recombinant purified human EHMT2 913-1193, Viva; purchased Viva
T2 sequence (Q96KQ7 913-1193): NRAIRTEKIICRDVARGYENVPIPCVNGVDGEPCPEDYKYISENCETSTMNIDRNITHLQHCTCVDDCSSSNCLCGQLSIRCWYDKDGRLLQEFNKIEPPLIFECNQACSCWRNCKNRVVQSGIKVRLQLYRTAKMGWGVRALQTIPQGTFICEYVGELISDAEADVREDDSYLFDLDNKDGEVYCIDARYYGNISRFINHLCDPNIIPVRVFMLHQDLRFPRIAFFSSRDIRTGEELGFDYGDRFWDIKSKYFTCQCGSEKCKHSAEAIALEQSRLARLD
Kind of experiment: biochemical. The source says: Biotinylated histone peptides were synthesized by Biopeptide and HPLC-purified to >95% purity. Streptavidin Flashplates and seals were purchased from PerkinElmer and 384 Well V-bottom Polypropylene Plates were from Greiner. ^3H-labeled S-adenosylmethionine (^3H-SAM) was obtained from American Radiolabeled Chemicals with a specific activity of 80 Ci/mmol. Unlabeled SAM and S-adenosylhomocysteine (SAH) were obtained from American Radiolabeled Chemicals and Sigma-Aldrich respectively. […] 384-well Flashplates and 96-well filter binding plates were read on a TopCount microplate reader (PerkinElmer). Compound serial dilutions were performed on a Freedom EVO (Tecan) and spotted into assay plates using a Thermo Scientific Matrix PlateMate (Thermo Scientific). Reagent cocktails were added by Multidrop Combi (Thermo Scientific).
General Procedure for EHMT2 Enzyme Assay on Histone Peptide Substrate. 10-point curves of test compounds were made on a Freedom EVO (Tecan) using serial 3-fold dilutions in DMSO, beginning at 2.5 mM (final top concentration of compound was 50 μM and the DMSO was 2%). A 1 μL aliquot of the inhibitor dilution series was spotted in a polypropylene 384-well V-bottom plate (Greiner) using a Thermo Scientific Matrix PlateMate (Thermo Scientific). […] Reactions were incubated for 60 minutes at room temperature and quenched with 10 μL per well of 400 μM unlabeled SAM, then transferred to a 384-well streptavidin Flashplate (PerkinElmer) and washed in a Biotek ELx-405 well washer with 0.1% Tween after 60 minutes. 384-well Flashplates were read on a TopCount microplate reader (PerkinElmer).

Where [3] appears, read: recombinant human EHMT2 913-1193, histone H3 1-15 peptide, 3H-SAM, balanced conditions, read-out: EHMT2 PEP (IC50 μM).

In the case of `COc1cc2c(cc1OCCCN1CC[C@H](O)C1)N=C(N)C21CCC1` [Compound 50], the IC50 in experiment [1] and in experiment [2] (setting [3]) was less than 0.1 µM each time.

As for `NC1=Nc2cc(OCCCN3CCCC3)c(OCc3ccccc3)cc2C12CCC2` [Compound 58], the IC50 in experiment [1] and in experiment [2] (setting [3]) was 1 to 10 µM each time.

As to `COc1cc2c(cc1OCCCN(C)C)N=C(N)C2(C)C` [Compound 46], the IC50 in experiment [1] and in experiment [2] (setting [3]) was 0.1 to 1 µM in each case.

Turning to `CCOc1cc2c(cc1OCCCN1CCCC1)N=C(N)C21CCC1` [Compound 59], the IC50 in experiment [1] and in experiment [2] (setting [3]) was less than 0.1 µM each time.

For the compound `COc1cc2c(cc1OCCCN1CCCC1)N=C(N)C21CCCCC1` [Compound 55], the IC50 in experiment [1] and in experiment [2] (setting [3]) was less than 0.1 µM each time.

On to `COc1cc2c(cc1OCC(C)CN1CCCC1)N=C(N)C21CCC1` (centres unmarked) [Compound 65], for which the IC50 in experiment [1] and in experiment [2] (setting [3]) was 0.1 to 1 µM throughout.

For `COc1cc2c(cc1OCCCN)N=C(N)C21CCC1` [Compound 69], the IC50 in experiment [1] and in experiment [2] (setting [3]) was 1 to 10 µM in each case.

In the case of `CNC1=Nc2cc(C#C[C@H](C)N3CCCCC3)c(OC)cc2C12CCC2` [Compound 93], the IC50 in experiment [1] and in experiment [2] (setting [3]) was less than 0.1 µM each time.

In the case of `COc1cc2c(cc1OCCCN(C)C)N=C(N)C21CCC1` [Compound 53], the IC50 in experiment [1] and in experiment [2] (setting [3]) was less than 0.1 µM in each case.

For the compound `NC1=Nc2cc(OCCCN3CCCC3)c(-c3cccnc3)cc2C12CCC2` [Compound 137], the IC50 in experiment [1] and in experiment [2] (setting [3]) was greater than 10 µM each time.

As to `COc1cc2c(cc1OCCCN1CCC1)N=C(N)C21CCC1` [Compound 43], the IC50 in experiment [1] and in experiment [2] (setting [3]) was less than 0.1 µM in each case.

In the case of `NC1=Nc2cc(OCCCN3CCCC3)c(OCC3CCCCC3)cc2C12CCC2` [Compound 61], the IC50 in experiment [1] and in experiment [2] (setting [3]) was greater than 10 µM each time.

`COc1cc2c(cc1OCCCN1CCCC1)N=C(N)C21CCCC1` [Compound 56]: the IC50 in experiment [1] and in experiment [2] was less than 0.1 µM throughout.

As for `NC1=Nc2cc(OCCCN3CCCC3)c(-c3ccncc3)cc2C12CCC2` [Compound 136], the figures for the concentration for half-maximal inhibition (IC50) in experiment [1] and in experiment [2] (setting [3]) were 1 to 10 µM and greater than 10 µM, respectively.

For `COc1cc2nc[nH]c2cc1OCCCN1CCCC1` [Compound 51], the IC50 in experiment [1] and in experiment [2] (setting [3]) was 1 to 10 µM each time.

For the compound `CNC1=Nc2cc(C#CCN3CCC(O)C3)c(OC)cc2C12CCC2` (centres unmarked) [Compound 95], the results for the IC50 in experiment [1] and in experiment [2] (setting [3]) were less than 0.1 µM and 0.1 to 1 µM, respectively.

As to `COc1cc2c(cc1OCCCN1CCCC1)ncn2C(C)C` [Compound 67], the results for the IC50 in experiment [1] and in experiment [2] (setting [3]) were greater than 10 µM and 1 to 10 µM, respectively.

`CNC1=Nc2cc(C#CC(C)N3CC4CC4C3)c(OC)cc2C12CCC2` (centres unmarked) [Compound 89]: the IC50 in experiment [1] and in experiment [2] (setting [3]) was less than 0.1 µM throughout.

Turning to `COc1cc2c(cc1OCCCN1CCCCC1)N=C(N)C21CCC1` [Compound 52], the IC50 was 0.1 to 1 µM in experiment [1] and less than 0.1 µM in experiment [2] (setting [3]).

Turning to `CC(C)Oc1cc2c(cc1OCCCN1CCCC1)N=C(N)C21CCC1` [Compound 68], the IC50 in experiment [1] and in experiment [2] (setting [3]) was 1 to 10 µM throughout.

As for `CNCCCOc1cc2c(cc1OC)C1(CCC1)C(N)=N2` [Compound 57], the IC50 in experiment [1] and in experiment [2] (setting [3]) was 1 to 10 µM each time.

On to `NC1=Nc2cc(OCCCN3CCCC3)c(-c3ccccc3)cc2C12CCC2` [Compound 135], for which the figures for the IC50 in experiment [1] and in experiment [2] (setting [3]) were 1 to 10 µM and greater than 10 µM, respectively.

On to `NC1=Nc2cc(OCCCN3CCCC3)c(OCC3CCOCC3)cc2C12CCC2` [Compound 60], for which the IC50 in experiment [1] and in experiment [2] (setting [3]) was 1 to 10 µM throughout.

For `CNCCCOc1cc2c(cc1OC)C(C)(C)C(N)=N2` [Compound 48], the IC50 in experiment [1] and in experiment [2] (setting [3]) was 0.1 to 1 µM throughout.

Turning to `COc1cc2c(cc1OCC(O)CN1CCCC1)N=C(N)C21CCC1` (centres unmarked) [Compound 62], the IC50 in experiment [1] and in experiment [2] (setting [3]) was less than 0.1 µM in each case.

Regarding `COc1cc2c(cc1OCCCN)N=C(N)C2(C)C` [Compound 47], the IC50 in experiment [1] and in experiment [2] (setting [3]) was 1 to 10 µM each time.

As to `COc1cc2c(cc1OCCCN1CCCC1)C1(CCC1)C(N)=N2` [Compound 66], the IC50 in experiment [1] and in experiment [2] (setting [3]) was 1 to 10 µM throughout.

`COc1cc2c(cc1OCCCN1CCOCC1)N=C(N)C21CCC1` [Compound 54]: the IC50 in experiment [1] and in experiment [2] (setting [3]) was 0.1 to 1 µM throughout.

`COc1cc2c(cc1OCCCN1CC[C@@H](O)C1)N=C(N)C21CCC1` [Compound 49]: the IC50 in experiment [1] and in experiment [2] (setting [3]) was less than 0.1 µM throughout.

As for `CNC1=Nc2cc(C#CCN3CC4CC4C3)c(OC)cc2C12CCC2` (centres unmarked) [Compound 87], the IC50 in experiment [1] and in experiment [2] (setting [3]) was less than 0.1 µM throughout.

`CNC1=Nc2cc(C#C[C@@H](C)N3CCCCC3)c(OC)cc2C12CCC2` [Compound 94]: the IC50 in experiment [1] and in experiment [2] (setting [3]) was 0.1 to 1 µM in each case.
